Assay results: publication PMC4366162 (PLoS ONE, 2015)
Where a name gives a salt, the structure may show the parent alone. Read-outs that look alike come from different tables or passages of the source.

Key:
[1] = tested on: LPS-induced NO production in rat kidney mesangial cells (HBZY-1); assay: Total nitrite assay (Griess): inhibition of LPS-induced NO production in kidney mesangial cells; assay type: cell-based; settings: for IC50: read-out: IC50 against LPS-induced NO production (total nitrite)
Experimental: (§1) Rat mesangial HBZY-1 cells were obtained from China Center for Type Culture Collection (Wuhan, China). Cells were maintained in high glucose DMEM medium (Invitrogen, USA) supplemented with 10% heat-inactivated fetal bovine serum (FBS), 25 mM HEPES, 2 mM L-glutamine, 0.1 mM nonessential amino acids, 1.0 mM sodium pyruvate, 50 U/mL penicillin, and 50 μg/mL streptomycin at 37°C and 5% CO2. The cell passage number used for the following investigation was between 10 to 20 passages.
Mesangial cells were plated on 48-well plates at a density of 50,000 cells per well overnight in DMEM media containing 2% FBS. Cells were treated by flavonoid compounds at a series of concentrations from 0, 0.05, 0.1, 0.5, 1, 5, 10 to 50 μM or 0, 1, 5, 10, 50, 100 to 200 μM based on the initial activity range with or without 10 ng/mL LPS. Total nitrite production in the treatment media after 48 h was measured with Griess assay. Briefly, 100 μL media was mixed with 25 μL of reagent І (1% sulfanilamide in 5% phosphoric acid) and then 25 μL of reagent II (0.1% N-1-napthylethylenediamine dihydrochloride in water). The optical absorbance of the resulting solution was recorded at 540 nm with a 318C-microplate reader (Sanco Instrument Ltd. Shanghai, China) after 20 min. […] IC50 values were obtained using the dose-response analysis provided by the GraphPad Prism software.
All of the hydroxylated flavones were abbreviated as the positions of hydroxyl groups followed by—HO. The total production of nitrite in the treatment media was measured with Griess assay at 48 h post 10 ng/mL LPS stimulation.

[2] = tested on: inducible NO synthase (iNOS); assay: Western blot analysis of LPS-induced iNOS protein; assay type: cell-based, rat; settings: 12 h pretreatment, LPS 500 ng/mL, 24 h
Experimental: (§2) Cells were plated in growth media overnight at a density of 1×10^6 cells per well on a 6-well plate. […] For the western blot analysis, cells were washed with PBS and then lysed with 150 μL RIPA buffer containing protease and phosphatase inhibitor cocktail. The supernatants were collected by centrifuge at 14,000 g×10 min at 4°C and stored at -80°C. The total protein content of lysates was determined by enhanced BCA protein assay kit (Beyotime Institute of Biotechnology, Shanghai, China). Electrophoresis was carried out on a NuPAGE Novex Bis-Tris […] gel (Invitrogen, USA) under the reduced condition. After electrophoresis separation, proteins were transferred to membranes and incubated with rabbit monoclonal phospho-NF-κB-p65 antibody (3033S, 1:1000 dilution, Cell Signaling, USA), rabbit polyclonal iNOS antibody (ab3523, 1:500 dilution, Abcam, USA) or mouse monoclonal β-actin antibody (ANT009, 1:1000 dilution AntGene, China). Targeted proteins were then visualized with Qdot 625 conjugate kit (Invitrogen, USA). Gel images were captured with ZF-258 Gel Imaging System (Shanghai Jiapeng Scientific Co. Ltd, China) under illuminating light at 350 nm.
(§3) Fig 5 Western blot analysis of potential molecular targets by 6-methoxyflavone in kidney mesangial cells with LPS as the inflammatory stimuli. […]

[3] = tested on: phosphorylated p65 protein (NF-κB pathway); assay: Western blot analysis of LPS-activated NF-κB pathway (phosphorylated p65); assay type: cell-based, rat; settings: up to 1.0 μM, 12 h pretreatment, LPS 500 ng/mL, 15 min
Experimental: as §2, §3

mesangial cells = assay: MTT cell viability assay; assay type: cell-based, rat; settings: 48 h
Experimental: as §1
Cells were plated overnight in growth media (5,000 cells per well) and then treated with each compound for 48 h at increasing concentrations with total DMSO at 0.1%. MTT assay was carried out as reported, and cell viability was plotted with GraphPad Prism program.

[4] = NO radical quenching study (spontaneous NO from sodium nitroprusside, Griess assay); settings: sodium nitroprusside 5 mM in solution, read-out: IC50 of inhibition of spontaneously generated NO radicals from sodium nitroprusside
Experimental: Spontaneous generation of NO in solutions was achieved by a freshly prepared sodium nitroprusside stock solution in water (50 mM). The level of total nitrile production was determined by the Griess assay with the standard curve of sodium nitrile as described above. For the assay of NO inhibition by flavonoids, sodium nitroprusside solution (10 mM, 25 μL) was mixed with an equal volume of flavonoid solution in 50% DMSO, and the resulting solution was incubated at room temperature for 10 min. Griess reagent І and Griess reagent II (75 μL each) were subsequently added with a gap of 10 min. The optical density at 540 nm was recorded on a 318C-microplate reader after 15 min. The resulting data were processed and analyzed by the GraphPad Prism Software as described above.
Fig 3 Direct NO radical quench study with selected monohydroxylated and polyhydroxylated flavones. Spontaneous generation of NO was achieved by a freshly prepared sodium nitroprusside stock solution (5 mM) in water in Griess assay (top).

cytochrome P450 2C9 = tested on: cytochrome P450 2C9; set-up: method as in PMID 19515014; settings: cited from earlier work
[5] = Rattus norvegicus, HBZY-1, 48 h, rat mesangial cells, 10 ng/mL LPS, 48 h, Griess assay
[6] = Rattus norvegicus, HBZY-1, 48 h

SMILES | IC50 [1, 5] [µM] | other results
O=c1c(O)c(-c2ccc(O)c(O)c2)oc2cc(O)ccc12 [3,3',4',7-HO, fisetin] | 11 | –
O=c1cc(-c2ccc(O)cc2)oc2cc(O)cc(O)c12 [4',5,7-HO, apigenin] | > 200 | –
COc1ccc2oc(-c3ccccc3)cc(=O)c2c1 [compound 9, 6-methoxyflavone] | 0.192 | potency against LPS-induced NO production relative to 6-hydroxyflavone ([1]; more potent than 6-hydroxyflavone (IC50 1.7 μM)): 10 fold; inhibition of downstream inducible NO synthase (iNOS) upon LPS stimulation ([2]; from 200 nM to 1.0 μM): significant inhibition; inhibition of p65 activation (phosphorylated p65) [3]: no observable inhibition; cytotoxicity on mesangial cells (mesangial cells; at 1.0 μM): weak cytotoxicity
CC(=O)Oc1ccc2oc(-c3ccccc3)cc(=O)c2c1 [compound 10, 6-Acetoxyflavone] | 0.6 | cytotoxicity on mesangial cells (mesangial cells; at 10 μM): weak cytotoxicity
O=c1c(O)c(-c2ccccc2O)oc2c(O)c(O)ccc12 [2',3,7,8-HO] | ~200 | –
O=c1c(-c2ccc(O)cc2)coc2cc(O)ccc12 [daidzein, reference compound] | > 200 | –
O=c1c(O)c(-c2cc(O)c(O)c(O)c2)oc2cc(O)cc(O)c12 [3,3',4',5',5,7-HO, 3,3′,4′,5,5′,7-hexahydroxyflavone] | > 200 | IC50 [4]: ~10000 µM
O=c1cc(-c2ccccc2)oc2cc(O)ccc12 [compound 2, 7-hydroxyflavone] | – | IC50 [1, 6]: 46 µM; IC50 [4]: > 500 µM
O=c1c(O)c(-c2ccc(O)c(O)c2)oc2c(O)c(O)cc(O)c12 [3,3',4',5,7,8-HO, 3,3′,4′,5,7,8-hexahydroxyflavone] | – | IC50 [1, 6]: > 200 µM
O=c1c(O)c(-c2ccc(O)c(O)c2)oc2cc(O)cc(O)c12 [3,3',4',5,7-HO, quercetin] | 22 | –
O=c1cc(-c2ccc(O)cc2)oc2cccc(O)c12 [compound 6] | 14 | increase of IC50 against LPS-induced NO production versus flavone 5 ([1]; shift of hydroxyl group from 6-position to 5-position): 7 fold
O=c1c(O)c(-c2ccccc2)oc2ccccc12 [compound 4, 3-Hydroxyflavone] | > 200 | IC50 [4]: > 500 µM
O=c1c(O)c(-c2ccccc2)oc2cc(O)ccc12 [compound 7] | – | IC50 [1, 6]: 27 µM
O=c1cc(-c2ccccc2O)oc2ccccc12 [compound 3] | > 200 | –
O=c1cc(-c2cc(O)c(O)c(O)c2)oc2cc(O)cc(O)c12 [3',4',5',5,7-HO, tricetin] | ~200 | –
O=c1c(O)c(-c2ccc(O)cc2O)oc2cc(O)cc(O)c12 [2',3,4',5,7-HO, morin] | ~200 | –
O=c1cc(-c2ccccc2)oc2ccc(O)cc12 [compound 1, 6-hydroxyflavone] | ~2 | IC50 ([1]; rat mesangial cells, 10 ng/mL LPS, 48 h, Griess assay): 1.7 µM; IC50 [4]: > 500 µM; mode of inhibition of cytochrome P450 2C9 (cytochrome P450 2C9): noncompetitive inhibition
O=c1c(O)c(-c2cccc(O)c2)oc2cc(O)ccc12 [3,3',7-HO] | 11 | –
O=c1cc(-c2ccc(O)cc2)oc2ccc(O)cc12 [compound 5, 4′,6-dihydroxyflavone] | ~2 | –
O=c1c(O)c(-c2ccc(O)cc2O)oc2ccc(O)cc12 [2',3,4',6-HO, 2′,3,4′,6-tetrahydroxyflavone] | ~200 | –
O=c1cc(-c2ccccc2)oc2ccc(OS(=O)(=O)O)cc12 [compound 11, 6-flavone sulfate sodium salt] | 2.1 | cytotoxicity on mesangial cells (mesangial cells; at 10 μM): minimal
O=c1cc(-c2ccccc2)oc2c(O)c(O)ccc12 [compound 8] | 47 | –
Oc1ccc(/C=C/c2cc(O)cc(O)c2)cc1 [resveratrol, reference compound] | 11 | inhibition of downstream inducible NO synthase (iNOS) upon LPS stimulation ([2]; at 10 μM): weak inhibition
O=C1O[C@H]([C@@H](O)CO)C(O)=C1O [ascorbic acid, reference compound] | – | IC50 [4]: 254 µM
